Test results reported in ChEMBL document CHEMBL5338804 (J Med Chem, 2023).
≈ marks a conversion by molar mass, not a printed value.

Experiments:
[1] = Permeability of the compound at 100 uM incubated for 4 hrs at pH 5.5 by PAMPA assay; assay type: ADME; settings: read-out: permeability
[2] = Permeability of the compound from apical to basolateral side in human Caco-2 cells at 3 uM incubated for 2 hrs by LC-MS/MS analysis; assay type: ADME, cell-based; settings: read-out: permeability
[3] = Metabolic stability in human liver microsomes assessed as parent compound remaining at 0.5 uM measured after 10 mins in presence of NADPH by LC-MS/MS analysis; assay type: ADME, Microsome; settings: read-out: Stability
[4] = Permeability of the compound at 100 uM incubated for 4 hrs at pH 7.4 by PAMPA assay; assay type: ADME; settings: read-out: permeability
[5] = Permeability of the compound from basolateral to apical side in human Caco-2 cells at 3 uM incubated for 2 hrs by LC-MS/MS analysis; assay type: ADME, cell-based; settings: read-out: permeability
[6] = Metabolic stability in rat liver microsomes assessed as parent compound remaining at 0.5 uM measured after 10 mins in presence of NADPH by LC-MS/MS analysis; assay type: ADME, Microsome; settings: read-out: Stability
[7] = biological target: Glycogen synthase kinase-3 alpha (Homo sapiens, UniProt P49840); assay: Displacement of FL-KRREILSRRP[ps]ERYR-NH2 from human recombinant full length GST-tagged GSK-3-alpha expressed in insect cells incubated for 20 hrs by fluorescence based analysis; design: species or system Insect cell
Glycogen synthase kinase-3 alpha, sequence (P49840 whole entry): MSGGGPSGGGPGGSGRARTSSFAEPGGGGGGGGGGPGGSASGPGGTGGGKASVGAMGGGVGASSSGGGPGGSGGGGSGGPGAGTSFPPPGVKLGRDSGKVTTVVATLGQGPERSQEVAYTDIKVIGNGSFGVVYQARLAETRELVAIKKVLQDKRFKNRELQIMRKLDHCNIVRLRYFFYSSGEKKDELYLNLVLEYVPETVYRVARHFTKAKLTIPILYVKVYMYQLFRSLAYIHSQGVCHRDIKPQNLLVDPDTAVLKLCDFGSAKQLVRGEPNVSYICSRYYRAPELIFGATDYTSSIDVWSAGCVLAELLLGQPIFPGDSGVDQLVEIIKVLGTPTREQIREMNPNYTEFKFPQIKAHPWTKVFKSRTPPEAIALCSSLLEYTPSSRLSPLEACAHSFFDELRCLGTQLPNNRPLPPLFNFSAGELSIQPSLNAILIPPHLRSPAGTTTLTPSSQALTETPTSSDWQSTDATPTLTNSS

[8] = biological target: Glycogen synthase kinase-3 (Homo sapiens, UniProt P49840+P49841); assay: Inhibition of GSK-3 in human U2OS cells transfected with beta-catenin GFP and 4R1N tau plasmid assessed as inhibition of Tau phosphorylation at Ser396 residues by high-content imaging assay; assay type: cell-based
[9] = biological target: Glycogen synthase kinase-3 beta (Homo sapiens, UniProt P49841, H355L); assay: Displacement of FL-KRREILSRRP[ps]ERYR-NH2 from human recombinant N-terminal His6-tagged GSK-3-beta (14 to 306 residues) H355L mutant expressed in baculovirus-infected Sf21 cells incubated for 20 hrs by fluorescence based analysis
Glycogen synthase kinase-3 beta, sequence (P49841 whole entry, looked up, stated change not applied, the tested form may be a part): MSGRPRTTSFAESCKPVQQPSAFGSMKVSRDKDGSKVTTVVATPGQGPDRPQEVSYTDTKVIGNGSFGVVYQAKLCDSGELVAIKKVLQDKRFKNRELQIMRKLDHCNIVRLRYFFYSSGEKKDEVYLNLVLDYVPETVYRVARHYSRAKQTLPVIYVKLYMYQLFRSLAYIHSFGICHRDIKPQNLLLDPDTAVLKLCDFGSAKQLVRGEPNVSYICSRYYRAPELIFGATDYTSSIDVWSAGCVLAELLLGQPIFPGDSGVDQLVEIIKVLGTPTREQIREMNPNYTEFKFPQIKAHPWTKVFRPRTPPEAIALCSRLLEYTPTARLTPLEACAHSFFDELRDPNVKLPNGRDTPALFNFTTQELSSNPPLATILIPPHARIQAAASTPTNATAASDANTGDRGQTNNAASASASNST

[10] = Metabolic stability in mouse liver microsomes assessed as parent compound remaining at 0.5 uM measured after 10 mins in presence of NADPH by LC-MS/MS analysis; assay type: ADME, Microsome; settings: read-out: Stability
[11] = Protein binding in rat plasma assessed as unbound fraction at 10 uM incubated for 5 hrs by equilibrium dialysis method; assay type: ADME, cell-free
[12] = Protein binding in human plasma assessed as unbound fraction at 10 uM incubated for 5 hrs by equilibrium dialysis method; assay type: ADME, cell-free
[13] = biological target: Protein kinase C theta type (Homo sapiens, UniProt Q04759); assay: Inhibition of PKC theta (unknown origin)
Protein kinase C theta type, sequence (Q04759 whole entry): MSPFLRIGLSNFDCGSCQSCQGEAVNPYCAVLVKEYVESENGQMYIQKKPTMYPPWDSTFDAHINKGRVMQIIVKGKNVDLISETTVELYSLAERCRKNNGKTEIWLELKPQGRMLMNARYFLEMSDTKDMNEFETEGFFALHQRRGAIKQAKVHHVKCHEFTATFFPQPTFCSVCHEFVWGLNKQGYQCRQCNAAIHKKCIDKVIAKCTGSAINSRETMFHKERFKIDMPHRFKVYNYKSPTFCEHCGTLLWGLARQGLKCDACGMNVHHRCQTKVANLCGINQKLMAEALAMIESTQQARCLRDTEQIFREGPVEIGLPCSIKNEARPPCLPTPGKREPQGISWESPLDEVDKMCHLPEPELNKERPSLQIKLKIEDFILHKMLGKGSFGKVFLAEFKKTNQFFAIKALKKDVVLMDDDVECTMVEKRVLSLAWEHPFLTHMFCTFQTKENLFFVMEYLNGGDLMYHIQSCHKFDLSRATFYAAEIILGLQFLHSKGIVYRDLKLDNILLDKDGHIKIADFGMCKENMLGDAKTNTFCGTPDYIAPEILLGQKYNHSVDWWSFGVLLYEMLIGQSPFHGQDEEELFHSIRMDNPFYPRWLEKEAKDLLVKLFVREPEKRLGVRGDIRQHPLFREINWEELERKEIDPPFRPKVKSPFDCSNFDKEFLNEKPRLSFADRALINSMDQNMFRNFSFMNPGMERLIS

[14] = test system: Mus musculus; assay: Anti-alzheimer activity against LaFerla 3x transgenic Alzheimer's disease C57BL/6 mouse model assessed as reduction in tau phosphorylation at Ser396 residue in brain at 10 mg/kg, po measured after 5 hrs by ELISA; assay type: functional
[15] = biological target: AP2-associated protein kinase 1 (Homo sapiens, UniProt Q2M2I8); assay: Inhibition of AAK1 (unknown origin)
[16] = Plasma concentration in LaFerla 3x transgenic Alzheimer's disease C57BL/6 mouse model at 10 mg/kg, po measured after 5 hrs; assay type: ADME, organism-based
[17] = Volume of distribution at steady state in C57BL/6 mouse at 2 mg/kg, iv by LC-MS/MS analysis; assay type: ADME, organism-based; settings: in vivo, read-out: Vdss
[18] = biological target: Interleukin-1 receptor-associated kinase 4 (Homo sapiens, UniProt Q9NWZ3); assay: Inhibition of IRAK4 (unknown origin)
Interleukin-1 receptor-associated kinase 4, sequence (Q9NWZ3 whole entry): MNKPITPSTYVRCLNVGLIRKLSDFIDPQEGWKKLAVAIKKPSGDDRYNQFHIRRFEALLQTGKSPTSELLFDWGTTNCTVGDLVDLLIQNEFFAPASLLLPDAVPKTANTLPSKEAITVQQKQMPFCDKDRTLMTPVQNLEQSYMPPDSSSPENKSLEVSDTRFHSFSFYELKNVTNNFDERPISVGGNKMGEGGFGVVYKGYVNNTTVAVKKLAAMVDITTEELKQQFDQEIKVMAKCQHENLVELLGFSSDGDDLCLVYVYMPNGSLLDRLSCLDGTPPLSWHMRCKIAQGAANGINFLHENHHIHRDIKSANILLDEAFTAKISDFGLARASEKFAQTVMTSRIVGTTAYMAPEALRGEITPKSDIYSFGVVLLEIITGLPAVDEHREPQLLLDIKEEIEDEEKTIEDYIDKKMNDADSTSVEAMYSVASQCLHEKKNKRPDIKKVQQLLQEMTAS

[19] = Clearance in C57BL/6 mouse at 2 mg/kg, iv by LC-MS/MS analysis; assay type: ADME, organism-based; settings: in vivo
[20] = biological target: Mitogen-activated protein kinase 14 (Homo sapiens, UniProt Q16539); assay: Inhibition of MAPK p38-alpha (unknown origin)
Mitogen-activated protein kinase 14, sequence (Q16539 whole entry): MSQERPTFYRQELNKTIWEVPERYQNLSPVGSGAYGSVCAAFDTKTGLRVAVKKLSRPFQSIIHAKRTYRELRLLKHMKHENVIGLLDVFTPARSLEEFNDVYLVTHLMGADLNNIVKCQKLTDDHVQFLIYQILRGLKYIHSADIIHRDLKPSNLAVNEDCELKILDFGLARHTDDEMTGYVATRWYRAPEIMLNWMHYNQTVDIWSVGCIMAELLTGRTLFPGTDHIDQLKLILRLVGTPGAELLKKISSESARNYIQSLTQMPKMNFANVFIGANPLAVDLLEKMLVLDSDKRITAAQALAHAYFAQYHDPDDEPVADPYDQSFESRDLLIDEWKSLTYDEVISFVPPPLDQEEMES

[21] = biological target: MAP kinase-activated protein kinase 2 (Homo sapiens, UniProt P49137); assay: Inhibition of MK2 (unknown origin)
[22] = Thermodynamic aqueous solubility of the compound at pH 7.4 incubated for 18 to 24 hrs by HPLC-UV analysis; assay type: physicochemical; settings: aqueous medium, time 18-24 hrs, read-out: Therm_solubility
[23] = Ratio of drug concentration in brain to plasma in LaFerla 3x transgenic Alzheimer's disease C57BL/6 mouse model at 10 mg/kg, po measured after 5 hrs; assay type: ADME, organism-based; settings: read-out: BPR
[24] = biological target: Tyrosine-protein kinase SYK (Homo sapiens, UniProt P43405); assay: Inhibition of SYK (unknown origin)
[25] = Cmax in C57BL/6 mouse at 10 mg/kg, po by LC-MS/MS analysis; assay type: ADME, organism-based; design: dose 10 mg/kg, route po; settings: in vivo
[26] = MRT in C57BL/6 mouse at 2 mg/kg, iv by LC-MS/MS analysis; assay type: ADME, organism-based; settings: in vivo
[27] = AUC (total) in C57BL/6 mouse at 10 mg/kg, po by LC-MS/MS analysis; assay type: ADME, organism-based; design: dose 10 mg/kg, route po; settings: in vivo
[28] = biological target: Cyclin-dependent kinase 2 (Homo sapiens, UniProt P24941); assay: Inhibition of CDK2 (unknown origin)
[29] = biological target: Tyrosine-protein kinase JAK2 (Homo sapiens, UniProt O60674); assay: Inhibition of JAK2 (unknown origin)
Tyrosine-protein kinase JAK2, sequence (O60674 whole entry): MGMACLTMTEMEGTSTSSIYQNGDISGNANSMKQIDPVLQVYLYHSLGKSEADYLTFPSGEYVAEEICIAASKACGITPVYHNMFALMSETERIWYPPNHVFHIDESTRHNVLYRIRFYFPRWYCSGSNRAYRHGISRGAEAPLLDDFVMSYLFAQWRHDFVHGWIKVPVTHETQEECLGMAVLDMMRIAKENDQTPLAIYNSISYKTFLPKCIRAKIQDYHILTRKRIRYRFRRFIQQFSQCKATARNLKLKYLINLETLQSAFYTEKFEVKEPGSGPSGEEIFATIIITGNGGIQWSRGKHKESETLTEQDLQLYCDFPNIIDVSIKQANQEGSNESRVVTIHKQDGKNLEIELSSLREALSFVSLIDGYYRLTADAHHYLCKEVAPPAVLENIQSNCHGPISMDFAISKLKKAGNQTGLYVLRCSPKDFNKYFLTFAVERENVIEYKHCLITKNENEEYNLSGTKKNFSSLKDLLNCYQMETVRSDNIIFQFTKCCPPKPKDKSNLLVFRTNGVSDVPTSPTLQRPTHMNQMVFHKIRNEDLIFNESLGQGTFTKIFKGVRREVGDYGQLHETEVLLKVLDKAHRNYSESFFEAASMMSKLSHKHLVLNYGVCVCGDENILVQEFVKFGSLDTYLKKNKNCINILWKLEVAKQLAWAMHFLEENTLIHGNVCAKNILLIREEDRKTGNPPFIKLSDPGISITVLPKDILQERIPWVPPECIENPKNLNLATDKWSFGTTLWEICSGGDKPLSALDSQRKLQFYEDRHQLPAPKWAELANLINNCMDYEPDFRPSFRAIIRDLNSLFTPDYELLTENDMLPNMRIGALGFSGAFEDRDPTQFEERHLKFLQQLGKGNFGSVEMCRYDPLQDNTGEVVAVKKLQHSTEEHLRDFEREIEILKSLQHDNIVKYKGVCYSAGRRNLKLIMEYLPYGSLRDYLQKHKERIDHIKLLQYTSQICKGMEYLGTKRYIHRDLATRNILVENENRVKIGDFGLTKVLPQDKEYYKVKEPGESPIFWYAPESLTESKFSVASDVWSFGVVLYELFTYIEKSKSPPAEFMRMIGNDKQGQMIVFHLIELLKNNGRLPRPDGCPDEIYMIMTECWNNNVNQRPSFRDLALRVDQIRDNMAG

[30] = biological target: Mast/stem cell growth factor receptor Kit (Homo sapiens, UniProt P10721); assay: Inhibition of c-Kit (unknown origin)
[31] = Protein binding in mouse brain assessed as unbound fraction at 1 uM incubated for 4 hrs by LC-MS analysis; assay type: ADME, tissue-based
[32] = biological target: Non-receptor tyrosine-protein kinase TYK2 (Homo sapiens, UniProt P29597); assay: Inhibition of TYK2 (unknown origin)
[33] = biological target: Casein kinase II subunit alpha (Homo sapiens, UniProt P68400); assay: Inhibition of CK2A1 (unknown origin)
Casein kinase II subunit alpha, sequence (P68400 whole entry): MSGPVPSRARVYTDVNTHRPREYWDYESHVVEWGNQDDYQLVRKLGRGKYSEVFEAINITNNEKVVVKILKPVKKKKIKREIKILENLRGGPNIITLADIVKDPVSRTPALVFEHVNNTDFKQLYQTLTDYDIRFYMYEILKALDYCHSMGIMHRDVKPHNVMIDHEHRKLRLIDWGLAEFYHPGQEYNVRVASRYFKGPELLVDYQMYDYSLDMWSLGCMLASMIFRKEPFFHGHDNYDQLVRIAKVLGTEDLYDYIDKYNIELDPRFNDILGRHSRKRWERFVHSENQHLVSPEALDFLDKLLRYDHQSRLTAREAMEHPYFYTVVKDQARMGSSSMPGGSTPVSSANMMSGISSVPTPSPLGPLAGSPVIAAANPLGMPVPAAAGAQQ

[34] = Thermodynamic aqueous solubility of the compound at pH 1 incubated for 18 to 24 hrs by HPLC-UV analysis; assay type: physicochemical; settings: aqueous medium, time 18-24 hrs, read-out: Therm_solubility
[35] = biological target: Cyclin-dependent kinase 5 (Homo sapiens, UniProt Q00535); assay: Inhibition of CDK5 (unknown origin)
[36] = Protein binding in mouse plasma assessed as unbound fraction at 10 uM incubated for 5 hrs by equilibrium dialysis method; assay type: ADME, cell-free
[37] = biological target: Tyrosine-protein kinase Lck (Homo sapiens, UniProt P06239); assay: Inhibition of LCK (unknown origin)
[38] = biological target: Casein kinase II subunit alpha' (Homo sapiens, UniProt P19784); assay: Inhibition of CK2A2 (unknown origin)
Casein kinase II subunit alpha', sequence (P19784 whole entry): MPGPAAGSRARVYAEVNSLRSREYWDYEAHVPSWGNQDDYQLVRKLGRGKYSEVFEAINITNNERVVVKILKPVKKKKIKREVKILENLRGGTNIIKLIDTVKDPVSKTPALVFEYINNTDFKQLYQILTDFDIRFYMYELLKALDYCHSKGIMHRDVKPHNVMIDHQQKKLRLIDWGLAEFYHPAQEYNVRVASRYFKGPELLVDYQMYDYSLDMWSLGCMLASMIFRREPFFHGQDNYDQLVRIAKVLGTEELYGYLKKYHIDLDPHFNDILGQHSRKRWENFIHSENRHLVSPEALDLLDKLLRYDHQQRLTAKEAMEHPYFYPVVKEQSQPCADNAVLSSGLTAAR

[39] = biological target: Platelet-derived growth factor receptor beta (Homo sapiens, UniProt P09619); assay: Inhibition of PDGFR-beta (unknown origin)
[40] = Ratio of unbound drug concentration in mouse brain to plasma at 10 uM incubated for 5 hrs by equilibrium dialysis method; assay type: ADME, cell-free; settings: read-out: K(p,uu,brain)
[41] = biological target: Tyrosine-protein kinase JAK1 (Homo sapiens, UniProt P23458); assay: Inhibition of JAK1 (unknown origin)
[42] = biological target: Tyrosine-protein kinase BTK (Homo sapiens, UniProt Q06187); assay: Inhibition of BTK (unknown origin)
[43] = Half life in C57BL/6 mouse at 2 mg/kg, iv by LC-MS/MS analysis; assay type: ADME, organism-based; settings: in vivo
[44] = biological target: Ribosomal protein S6 kinase alpha-1 (Homo sapiens, UniProt Q15418); assay: Inhibition of RSK1 (unknown origin)
[45] = biological target: Insulin-like growth factor 1 receptor (Homo sapiens, UniProt P08069); assay: Inhibition of IGF1R (unknown origin)
[46] = biological target: Serine/threonine-protein kinase pim-1 (Homo sapiens, UniProt P11309); assay: Inhibition of PIM1 (unknown origin)
Serine/threonine-protein kinase pim-1, sequence (P11309 whole entry): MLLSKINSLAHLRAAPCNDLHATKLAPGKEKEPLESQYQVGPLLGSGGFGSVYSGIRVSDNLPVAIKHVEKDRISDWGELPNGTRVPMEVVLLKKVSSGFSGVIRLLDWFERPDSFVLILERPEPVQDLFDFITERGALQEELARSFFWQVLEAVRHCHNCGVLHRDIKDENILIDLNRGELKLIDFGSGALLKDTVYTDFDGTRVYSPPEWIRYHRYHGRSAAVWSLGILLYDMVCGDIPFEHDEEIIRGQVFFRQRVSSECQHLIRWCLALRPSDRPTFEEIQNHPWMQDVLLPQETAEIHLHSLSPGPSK

[47] = biological target: Aurora kinase A (Mus musculus, UniProt P97477); assay: Inhibition of mouse Aurora kinase A
[48] = biological target: Casein kinase I isoform alpha (Homo sapiens, UniProt P48729); assay: Inhibition of CK1A1 (unknown origin)
[49] = Oral bioavailability in C57BL/6 mouse at 10 mg/kg by LC-MS/MS analysis; assay type: ADME, organism-based; settings: in vivo
[50] = biological target: Interleukin-1 receptor-associated kinase 1 (Homo sapiens, UniProt P51617); assay: Inhibition of IRAK1 (unknown origin)
[51] = Drug uptake in brain of LaFerla 3x transgenic Alzheimer's disease C57BL/6 mouse model at 10 mg/kg, po measured after 5 hrs; assay type: ADME, organism-based; settings: read-out: Drug uptake
[52] = biological target: Aurora kinase B (Homo sapiens, UniProt Q96GD4); assay: Inhibition of Aurora kinase B (unknown origin)
Aurora kinase B, sequence (Q96GD4 whole entry): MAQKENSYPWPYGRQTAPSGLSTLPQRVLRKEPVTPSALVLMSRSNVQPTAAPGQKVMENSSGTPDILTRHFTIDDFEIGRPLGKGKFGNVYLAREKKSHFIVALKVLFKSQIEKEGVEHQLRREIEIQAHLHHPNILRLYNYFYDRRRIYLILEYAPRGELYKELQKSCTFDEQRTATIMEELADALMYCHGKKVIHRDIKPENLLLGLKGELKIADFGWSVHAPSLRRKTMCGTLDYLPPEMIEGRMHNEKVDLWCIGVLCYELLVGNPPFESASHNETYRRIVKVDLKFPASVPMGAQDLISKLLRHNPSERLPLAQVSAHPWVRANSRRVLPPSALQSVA

O=C(Nc1cnccc1-c1ccc(F)cc1)c1ccnc(Nc2ccc(OC(F)F)cc2)n1
Papp at 4 h, 100 µM [1]: 98 ×10⁻⁶ cm/s | Papp A→B at 2 h, 3 µM [2]: 8.2 ×10⁻⁶ cm/s | remaining at 10 min, 0.5 µM [3]: 82% | Papp at 4 h, 100 µM [4]: 113 ×10⁻⁶ cm/s | Papp B→A at 2 h, 3 µM [5]: 3 ×10⁻⁶ cm/s | remaining at 10 min, 0.5 µM [6]: 62% | IC50 [7]: 0.00026 µM | IC50 [8]: 0.074 µM | IC50 [9]: 0.00045 µM | remaining at 10 min, 0.5 µM [10]: 72% | fraction unbound at 5 h, 10 µM [11]: 0.004 | fraction unbound at 5 h, 10 µM [12]: 0.003

N#Cc1ccc(Nc2nccc(C(=O)Nc3cnccc3-c3ccc(F)cc3)n2)cc1
IC50 [13]: 17 µM | Papp at 4 h, 100 µM [1]: 121 ×10⁻⁶ cm/s | inhibition in vivo at 10 mg/kg [14]: 33% | IC50 [15]: > 2 µM | concentration at 5 h [16]: 410 nM | Vd [17]: 5.4 L/kg | IC50 [18]: > 50 µM | clearance [19]: 23.3 mL/min/kg | IC50 [20]: 23 µM | Papp A→B at 2 h, 3 µM [2]: 24.4 ×10⁻⁶ cm/s | IC50 [21]: > 50 µM | remaining at 10 min, 0.5 µM [3]: 79% | solubility thermodynamic [22]: < 1 µg/mL | Papp at 4 h, 100 µM [4]: 84 ×10⁻⁶ cm/s | Kp at 5 h [23]: 0.9 | IC50 [24]: > 50 µM | Cmax [25]: 3500 nM | Papp B→A at 2 h, 3 µM [5]: 9.8 ×10⁻⁶ cm/s | MRT [26]: 3.9 h | AUC [27]: 24.3 µM·h | IC50 [28]: 0.22 µM | remaining at 10 min, 0.5 µM [6]: 66% | IC50 [7]: 0.00025 µM | IC50 [29]: 13 µM | IC50 [30]: 5.6 µM | fraction unbound at 4 h, 1 µM [31]: 0.012 | IC50 [32]: > 50 µM | IC50 [33]: > 50 µM | solubility thermodynamic [34]: 16 µg/mL (≈ 39 µM) | IC50 [35]: 1.3 µM | fraction unbound at 5 h, 10 µM [36]: 0.03 | IC50 [37]: > 2 µM | IC50 [38]: > 2 µM | IC50 [39]: 37 µM | Kp uu at 5 h, 10 µM [40]: 0.4 | IC50 [8]: 0.01 µM | IC50 [41]: 31 µM | IC50 [9]: 0.00035 µM | IC50 [42]: 13 µM | half-life [43]: 2.5 h | IC50 [44]: > 50 µM | IC50 [45]: 17 µM | IC50 [46]: 0.72 µM | IC50 [47]: 17 µM | remaining at 10 min, 0.5 µM [10]: 66% | fraction unbound at 5 h, 10 µM [11]: 0.019 | IC50 [48]: > 2 µM | bioavailability [49]: 100% | fraction unbound at 5 h, 10 µM [12]: 0.011 | IC50 [50]: > 2 µM | concentration at 5 h [51]: 370 nM | IC50 [52]: 11 µM
